For this test, the system named is Plasmodium berghei. Kind of test: Luciferase/luciferin-expressing antifolate-resistant parasites were used to infect a culture of HepG2 cells that were pre-incubated with compounds. Infected hepatocytes emit light due to the luciferase reaction. Assay results are presented as the percent inhibition of light emission compared to control. […]. The class given is functional. As to conditions: sporozoite; for IC90: read-out: LUCIFERASE INFECTION ASSAY - IC90.

The mark [1] stands for this setting: read-out: LUCIFERASE INFECTION ASSAY - IC50.

Each structure is given as a SMILES string.

Turning to `O=c1c2c3c(sc2nc(SCc2cc([N+](=O)[O-])cc4c2OCOC4)n1C1CCCC1)CCCC3`, the IC90 (as a rule, the concentration needed for an effect of 90%) was greater than 10 µM. For the same compound, under “FFLUC_HILL_SLOPE 0.343, FFLUC_R_SQUARED 0.0189, read-out: LUCIFERASE INFECTION ASSAY - IC50”, the half-inhibitory concentration (IC50) (usually the midpoint of a concentration-inhibition curve) is greater than 10 µM.
For the compound `N#Cc1ccc(C(=O)C(C#N)c2nc(-c3ccc(F)cc3)cs2)cc1` (stereo not given), the IC90 came to 3.83 µM. Besides, the IC50 (PBLUC_HILL_SLOPE 17.7, PBLUC_R_SQUARED 0.0264, read-out: LUCIFERASE INFECTION ASSAY - IC50) was determined as 3.38 µM.
Take `Cc1nc2ccc(NC(=O)c3ccc4[nH]c(C)c(C)c4c3)cc2s1`: the IC90 was greater than 9.84 µM. Also, the IC50 (PBLUC_HILL_SLOPE 1.58, PBLUC_R_SQUARED 0.399, read-out: LUCIFERASE INFECTION ASSAY - IC50) is greater than 9.84 µM.
For the compound `COc1ccc(/C=C2\c3ccccc3Cn3c2nc(=O)c2c4c(sc23)CCCC4)cc1`, the IC90 stood at 8.28 µM. In addition, for the setting “PBLUC_HILL_SLOPE 2.2, PBLUC_R_SQUARED 0.219, read-out: LUCIFERASE INFECTION ASSAY - IC50”, the IC50 came out at 3.06 µM.
In the case of `C1CCN(Cc2nc(NC3CCN(C4CC4)CC3)c3c4c(sc3n2)CCCC4)CC1`, the concentration for an effect of 90% (IC90) is greater than 10 µM. For the same compound, the IC50 under setting [1] is greater than 10 µM.
`CC(C)NC(=O)c1c(NC(=O)c2cc(F)ccc2F)nc2ccccn12`: the IC90 is greater than 9.21 µM. The half-maximal inhibitory concentration (IC50) (PBLUC_HILL_SLOPE 2.78, PBLUC_R_SQUARED 0.497, read-out: LUCIFERASE INFECTION ASSAY - IC50) was 6.02 µM.
Regarding `CCCc1cc(NCCCN2CCOCC2)n2nc(C)c(-c3ccccc3)c2n1`, the IC90 was greater than 8.39 µM. Further, the IC50 under setting [1] is greater than 8.39 µM.
On to `Cc1ccc(N(Cc2ccccc2)C(=O)C2CCN(S(=O)(=O)c3c(Cl)cccc3Cl)CC2)cc1`, for which the IC90 is greater than 10 µM. Moreover, the IC50 under setting [1] is greater than 10 µM.
Regarding `Cc1nnc(SCCCc2nc(-c3ccncc3)no2)n1Cc1ccccc1`, the IC90 is greater than 10 µM. Besides, the concentration for half-maximal inhibition (IC50) under setting [1] was greater than 10 µM.
Turning to `COCCCn1c(Sc2ncnc3sc4c(c23)CCC4)nc2sc3c(c2c1=O)CCC3`, the 90% effect concentration (IC90) is greater than 10 µM. Also, the IC50 under setting [1] is greater than 10 µM.
With `O=S(=O)(N=C1c2ccccc2/C(=N/S(=O)(=O)c2ccc(Cl)cc2)C2C3C=CC(CC3)C12)c1ccc(Cl)cc1` (stereo not given), the IC90 was greater than 10 µM. Moreover, the IC50 under setting [1] stood at 8.44 µM.
For `CCOC(=O)c1c(C)[nH]c(C(=O)OCC(=O)NC23CC4CC(CC(C4)C2)C3)c1C`, in that order: greater than 10 µM and greater than 10 µM.
Consider `O=C1Nc2ccc([N+](=O)[O-])cc2/C1=N/NC(=S)NC1CCCCC1`, for which the IC90 was determined as 3.82 µM. For the same compound, the IC50 (HEPG2TOX_HILL_SLOPE 8.71, HEPG2TOX_R_SQUARED 0.815, PBLUC_HILL_SLOPE 16.7, PBLUC_R_SQUARED 0.29, read-out: LUCIFERASE INFECTION ASSAY - IC50) was 3.35 µM.
In the case of `Cc1ccc(C)c(OC2CCN(C(=O)Nc3cc(C)on3)CC2)c1`, the IC90 worked out at 1.37 µM. In addition, the IC50 (HEPG2TOX_HILL_SLOPE 1.23, HEPG2TOX_R_SQUARED 0.839, PBLUC_HILL_SLOPE 15.3, PBLUC_R_SQUARED 0.595, read-out: LUCIFERASE INFECTION ASSAY - IC50) was 1.19 µM.
With `Cc1occc1C(=O)N/N=C/C=C1\N(C)c2ccccc2C1(C)C`, the IC90 is greater than 10 µM. For the same compound, the half-maximal inhibitory concentration (IC50) under setting [1] is greater than 10 µM.
As to `CCc1ccc(NC(=O)CN(c2cccc3ccccc23)S(=O)(=O)c2ccc(C)c(C)c2)cc1`, the IC90 was greater than 10 µM. For the same compound, the IC50 (FFLUC_HILL_SLOPE 1.69, FFLUC_R_SQUARED 0.486, read-out: LUCIFERASE INFECTION ASSAY - IC50) is greater than 10 µM.
Take `CCN(CC)c1ccc(NC(=O)c2ccc(C)cc2)c(N(CC)CC)n1`: the IC90 is greater than 9.31 µM. Further, the IC50 under setting [1] is greater than 9.31 µM.
For the compound `CCc1cccc(NS(=O)(=O)c2ccc(-n3ncc(Cl)c(Cl)c3=O)cc2)c1`, the 90% effect concentration (IC90) is 9.42 µM. For the same compound, the IC50 (HEPG2TOX_HILL_SLOPE 22.4, HEPG2TOX_R_SQUARED 0.361, PBLUC_HILL_SLOPE 19.8, PBLUC_R_SQUARED 0.355, read-out: LUCIFERASE INFECTION ASSAY - IC50) came to 8.43 µM.
Consider `CCOc1ccc(C(C)=O)cc1CSc1nc2ccccc2n1-c1cccc(C)c1`, for which the IC90 was greater than 10 µM. The IC50 (PBLUC_HILL_SLOPE 3.51, PBLUC_R_SQUARED 0.141, read-out: LUCIFERASE INFECTION ASSAY - IC50) was 7.59 µM.
In the case of `CC(C)c1noc(CN2CCN(c3ncnc4sc(-c5ccccc5)cc34)CC2)n1`, the IC90 was 6.72 µM. Moreover, under “HEPG2TOX_HILL_SLOPE 1.77, HEPG2TOX_R_SQUARED 0.986, PBLUC_HILL_SLOPE 2.11, PBLUC_R_SQUARED 0.835, read-out: LUCIFERASE INFECTION ASSAY - IC50”, the 50% inhibitory concentration (IC50) stood at 2.37 µM.
As to `O=C(NC(=O)c1cnn2c(C(F)(F)F)cc(C(F)(F)F)nc12)Nc1ccc(Cl)cc1`, the IC90 is greater than 7.31 µM. The IC50 under setting [1] is greater than 7.31 µM.
For `N#CC(C(=O)c1ccccc1NC(=O)C(F)(F)F)c1nc(-c2ccc(Cl)cc2)cs1` (stereo not given), the IC90 is greater than 10 µM. In addition, the IC50 (FFLUC_HILL_SLOPE 12.8, FFLUC_R_SQUARED 0.656, read-out: LUCIFERASE INFECTION ASSAY - IC50) is greater than 10 µM.
With `O=C(Nc1cccc([N+](=O)[O-])c1)NC1CCSc2ccc(F)cc21` (stereo not given), the IC90 is 4.49 µM. In addition, under setting [1], the IC50 is 3.86 µM.
Consider `Fc1cccc(-n2ccnc2SCc2nc3ccccc3s2)c1`, for which the IC90 is greater than 10 µM. In addition, under “PBLUC_HILL_SLOPE 1.97, PBLUC_R_SQUARED 0.394, read-out: LUCIFERASE INFECTION ASSAY - IC50”, the IC50 was determined as 6.86 µM.
On to `C=CCn1c(N)c(-c2nc3ccccc3[nH]2)c2nc3ccccc3nc21`, for which the IC90 is greater than 9.69 µM. Besides, the IC50 (PBLUC_HILL_SLOPE 3.6, PBLUC_R_SQUARED 0.636, read-out: LUCIFERASE INFECTION ASSAY - IC50) came to 5.99 µM.
Regarding `COc1ccc(-c2cc(C(=O)NNC3=NCCC3)c3c(C)nn(-c4ccccc4)c3n2)cc1`, the IC90 was greater than 10 µM. In addition, for the setting “PBLUC_HILL_SLOPE 16.7, PBLUC_R_SQUARED 0.16, read-out: LUCIFERASE INFECTION ASSAY - IC50”, the IC50 was 9.26 µM.
In the case of `CN(/N=C/c1ccc(Cl)cc1)c1ncc(Cl)cc1C(F)(F)F`, the IC90 is greater than 9.48 µM. For the setting “PBLUC_HILL_SLOPE 3.36, PBLUC_R_SQUARED 0.0281, read-out: LUCIFERASE INFECTION ASSAY - IC50”, the half-maximal inhibitory concentration (IC50) turned out to be 7.13 µM.
`CN(C)C(=O)c1ccc(Nc2cc3c(cn2)nc(-c2ccco2)n3C)cc1`: the IC90 is greater than 10 µM. The IC50 under setting [1] was greater than 10 µM.
For `CNc1nc2cnc(Nc3cccc(N(C)C)c3)cc2n1-c1cccc(C(F)(F)F)c1`, the IC90 is greater than 10 µM. Moreover, the IC50 under setting [1] was greater than 10 µM.
Take `CCOc1ccc(-n2c(C)cc(/C=N/Nc3nc(C)cc(O)n3)c2C)cc1`: the IC90 was greater than 10 µM. Moreover, the IC50 (PBLUC_HILL_SLOPE 14.4, PBLUC_R_SQUARED 0.318, read-out: LUCIFERASE INFECTION ASSAY - IC50) was determined as 9.96 µM.
Turning to `CC(OC(=O)c1c(NC(=O)C2CCCCC2)sc2c1CCC2)C(=O)Nc1[nH]cnc2ncnc1-2` (stereo not given), the IC90 was greater than 10 µM. Besides, the IC50 (HEPG2TOX_HILL_SLOPE 8.29, HEPG2TOX_R_SQUARED 0.38, read-out: LUCIFERASE INFECTION ASSAY - IC50) was greater than 10 µM.
Turning to `Clc1ccccc1Nc1cc2c(cn1)ncn2Cc1ccco1`, the IC90 was greater than 10 µM. The IC50 (HEPG2TOX_HILL_SLOPE 2.43, HEPG2TOX_R_SQUARED 0.709, PBLUC_HILL_SLOPE 4.59, PBLUC_R_SQUARED 0.452, read-out: LUCIFERASE INFECTION ASSAY - IC50) is 7.52 µM.
`O=C(Cc1cc(Cl)c2c(c1)OCCO2)NC(c1ccccc1)c1cccs1` (stereo not given): the 90% effect concentration (IC90) is greater than 10 µM. In addition, under setting [1], the half-maximal inhibitory concentration (IC50) is greater than 10 µM.
In the case of `Cc1ccc(Cn2nc(C)c(/C=N/NC(=O)c3ccccc3NS(=O)(=O)c3cccs3)c2C)cc1`, the IC90 is greater than 10 µM. Under setting [1], the IC50 was greater than 10 µM.
`CNC(=O)c1ccc(CN(C2CC2)S(=O)(=O)c2ccc(C)c(C)c2)cc1`: the IC90 was greater than 10 µM. Further, the IC50 (PBLUC_HILL_SLOPE 3.66, PBLUC_R_SQUARED 0.689, read-out: LUCIFERASE INFECTION ASSAY - IC50) stood at 5.91 µM.
Consider `O=C(Nc1cccc2ccccc12)N1CCN(c2ncccc2C(F)(F)F)CC1`, for which the IC90 was 0.105 µM. The IC50 (HEPG2TOX_HILL_SLOPE 3.44, HEPG2TOX_R_SQUARED 0.402, PBLUC_HILL_SLOPE 82.3, PBLUC_R_SQUARED 0.563, read-out: LUCIFERASE INFECTION ASSAY - IC50) came to 0.102 µM.
Consider `O=C(Nc1cc(Cl)cc(Cl)c1)OCc1ccc(Oc2ccccc2)c([N+](=O)[O-])c1`, for which the IC90 was greater than 7.62 µM. In addition, under setting [1], the IC50 is greater than 7.62 µM.
For `CCc1ccc(NC(=O)Cc2nc(-c3ccc4c(c3)CCCN4S(C)(=O)=O)cs2)cc1`, the IC90 is greater than 10 µM. Also, the IC50 (HEPG2TOX_HILL_SLOPE 9.08, HEPG2TOX_R_SQUARED 0.0527, PBLUC_HILL_SLOPE 1.74, PBLUC_R_SQUARED 0.25, read-out: LUCIFERASE INFECTION ASSAY - IC50) was found to be 5.76 µM.
Turning to `O=C(Cc1csc(Cc2ccccc2)n1)N1CCc2ccc(O)cc2C1`, the IC90 is greater than 10 µM. The IC50 (PBLUC_HILL_SLOPE 3.03, PBLUC_R_SQUARED 0.78, read-out: LUCIFERASE INFECTION ASSAY - IC50) amounted to 6.09 µM.
Take `Cc1noc(C)c1NC(=O)Nc1cc(C(F)(F)F)cc(C(F)(F)F)c1`: the IC90 was greater than 8.99 µM. Besides, where the note is “FFLUC_HILL_SLOPE 4.67, FFLUC_R_SQUARED 0.129, HEPG2TOX_HILL_SLOPE 8.81, HEPG2TOX_R_SQUARED 0.655, PBLUC_HILL_SLOPE 1.82, PBLUC_R_SQUARED 0.142, read-out: LUCIFERASE INFECTION ASSAY - IC50”, the IC50 is 4.81 µM.

The values above are taken from ChEMBL document CHEMBL4483862, “Open-source discovery of chemical leads for next-generation chemoprotective antimalarials” (2018).
